Source: ChEMBL document CHEMBL1155798, “Enhanced affinity of ketotifen toward tamarind seed polysaccharide in comparison with hydroxyethylcellulose and hyaluronic acid: a nuclear magnetic resonance investigation” (Bioorg Med Chem, 2008)
Calls of active or inactive are those of the source. The rule behind the calls is not given here.

Key:
Tamarindus indica [1] = test: Binding affinity to tamarind seed polysaccharide by dynamic dialysis
Tamarindus indica [2] = test: Binding affinity to tamarind seed polysaccharide by NMR

Structure (SMILES): CN1CCC(=C2c3ccccc3CC(=O)c3sccc32)CC1
- Activity (Tamarindus indica [1]): Active
- Activity (Tamarindus indica [2]): Active
